How the values were obtained:
[1] = system: PERCOLL isolated cells; experiment: Proliferation of PERCOLL isolated whole brain cells; format: cell-based, rat; conditions: 20 ng/ml bFGF in vitro
Experimental: Dissection. Adult female Fischer 344 rats (4-6 months of age) were anesthetized with a mixture of ketamine (44 mg/kg), acepromazine (0.75 mg/kg), and xylazine (4 mg/kg) in 0.9% NaCl and decapitated. The brains were removed and placed into cold phosphate-buffered saline (PBS).
Tissue Preparation. A cell suspension was obtained by pooling the brains from 6 animals from which the cerebella had been trimmed away. The remaining brain tissue was then weighed. The brains were diced into small fragments, and then digested for 40-50 min at 37° C. in Hanks' balanced salt solution containing 0.1% grade II neutral protease (Boehringer Mannheim), 0.01% papain (Worthington), and 0.01% Dnase I (Worthington). The mixture was shaken every five minutes. Every fifteen minutes during the digestion, the tissues were gently disrupted by pipetting the digestion reaction mixture through a 5-ml pipette. The tissue was then rinsed two times with DMEM/F12 containing 10% […] bovine serum, to inactivate digestive enzymes, and filtered through nylon mesh (Nitex, 100 μm pore size), to remove undissociated tissue. The filtered cells were resuspended to a final volume of 10 ml in DMEM/F12/10% FBS.
PERCOLL™ (polyvinylpyrrolidone-coated silica colloids) density gradient preparation and centrifugation. […]

[2] = system: low buoyancy fraction cells from hippocampus or cortex; experiment: Proliferation of low buoyancy hippocampus or cortex cells in growth medium; format: cell-based, rat; conditions: 20 ng/ml FGF-2, after 10 days
From the text: Tissue dissociation and fractionation: Tissues were finely minced and digested in a solution of papain (2.5 U/ml, Worthington), DNAse (250 U/ml, Worthington), and neutral protease (1 U/ml Dispase, Boehringer) dissolved in Hanks balanced salt solution, as described in Palmer T D, Ray J, Gage F H (1995), FGF-2-Responsive Neuronal Progenitors Reside in Proliferative and Quiescent Regions of the Adult Rodent Brain. Mol Cell Neurosci 6:474-486; and Gage F H, Coates P W, Palmer T D, Kuhn H G, Fisher L J, Suhonen J O, Peterson D A, Suhr S T, Ray J (1995), Survival and differentiation of adult neuronal progenitor cells transplanted to the adult brain. Proc Natl Acad Sci USA 92:11879-11883. Cells and tissue fragments were washed 3 times with Dulbecco's Modified Eagles Medium (DMEM) containing 10% […] bovine serum (defined FBS, Hyclone). Whole digested tissue was then suspended in DMEM 10% FBS, filtered through a sterile 107 μm nylon mesh and thoroughly mixed with an equal volume of PERCOLL™ (polyvinylpyrrolidone-coated silica colloids) solution. […]
Although BrdU-labeled cells fractionated to the low buoyancy population, most of the isolated cells were unlabeled, consistent with the isolation of immature, yet relatively quiescent precursors. […] Cell division was monitored by counting cells and by treating replicate cultures with BrdU at different times post plating. […]

FGF-2: basic fibroblast growth factor, human recombinant, prepared in E. coli
proliferation response [1]: inducible to proliferate
cells dividing in a given 24-hour period [2]: roughly 85%
cells labeled following a 48 hour exposure to BrdU [2]: > 99%
